We go through 26 compounds from patent publication US12180226B2, “Spirotricycle RIPK1 inhibitors and methods of uses thereof” (Merck Sharp & Dohme LLC, priority 2021, dated 2024).

The assay addresses RIPK1 (recombinant GST-RIPK1 kinase domain, residues 1-327) (Homo sapiens (Human), UniProt Q13546). The experiment in a line: RIPK1-ADP-Glo Enzymatic Assay. It counts as biochemical. The settings on record: ADP-Glo; 25 nM GST-RIPK1, 300 μM ATP; assay lower limit ~25 nM; read-out: RIPK1 V0 Ec50. In outline: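 GST-tagged kinase domain (residues 1-327, Sf21-expressed), 25 nM, pre-incubated 30 min with compound at ambient temperature, then reacted 150 min with 300 μM ATP and 3 μM dephosphorylated MBP in HEPES pH 7.3 buffer. ADP measured by ADP-Glo luminescence; EC50 from ten-point titration (top 100000 nM), four-parameter fit.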
A general note: ADP-Glo first removes unused ATP, then detects ADP through luciferase.

Counter-ions that a name gives are not always drawn.

Sequence of RIPK1 (recombinant GST-RIPK1 kinase domain, residues 1-327) (Q13546 1-327): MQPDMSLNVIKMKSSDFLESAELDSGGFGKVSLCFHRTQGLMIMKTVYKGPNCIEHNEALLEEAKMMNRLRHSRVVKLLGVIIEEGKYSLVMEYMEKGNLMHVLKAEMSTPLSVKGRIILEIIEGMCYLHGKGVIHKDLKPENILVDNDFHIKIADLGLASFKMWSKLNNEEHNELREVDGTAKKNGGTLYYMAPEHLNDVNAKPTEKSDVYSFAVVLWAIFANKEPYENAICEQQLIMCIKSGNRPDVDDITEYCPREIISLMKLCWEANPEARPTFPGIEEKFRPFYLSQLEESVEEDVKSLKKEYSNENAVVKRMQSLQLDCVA

Usually EC50 stands for the midpoint of the concentration-response curve. As for `O=C(c1ccccn1)N1CCC2(CC1)O[C@@H]1CC[C@@H](c3cc(F)cc(F)c3)N1C2=O` [Example 6.101, (5′S,7a′R)-5′-(3,5-difluorophenyl)-1-(pyridine-2-carbonyl) tetrahydro-3′H-spiro [piperidine-4,2′-pyrrolo[2,1-b][1,3]-oxazol]-3′-one], the EC50 came out at 56.9 nM.
Next, `O=C1N2[C@@H](CC[C@H]2c2cc(F)cc(F)c2)OC12CCN(c1nccn3ccnc13)CC2` [Example 13.15, (5′S,7a′R)-5′-(3,5-difluorophenyl)-1-(imidazo[1,2-a]pyrazin-8-yl)tetrahydro-3′H-spiro[piperidine-4,2′-pyrrolo[2,1-b]oxazol]-3′-one, TFA salt]: 188 nM; `O=C1N2[C@@H](CC[C@H]2c2ccccc2)OC12CN(c1cccc3ncnn13)C2` [Example 4.133, (5′S,7a′R)-5′-phenyl-1-([1,2,4]triazolo[1,5-a]pyridin-5-yl)tetrahydro-3′H-spiro[azetidine-3,2′-pyrrolo[2,1-b] [1,3]oxazol]-3′-one]: 48.8 nM.
`O=C1N2[C@@H](CC[C@H]2c2ccccc2)OC12CCN(c1ccc(-c3nc4ccccc4[nH]3)cn1)CC2` [Example 4.166, (5′S,7a′R)-1-[5-(1H-benzimidazol-2-yl)pyridin-2-yl]-5′-phenyltetrahydro-3′H-spiro[piperidine-4,2′-pyrrolo[2,1-b] [1,3]oxazol]-3′-one]: the EC50 was found to be 56.4 nM.
Next, `O=C(c1ccccc1)N1CCC2(CC1)O[C@@H]1CC[C@@H](c3ccc(F)cc3)N1C2=O` [Example 2.8, (5′S,7a′R)-1-benzoyl-5′-(4-fluorophenyl)tetrahydro-3′H-spiro[piperidine-4,2′-pyrrolo[2,1-b]oxazol]-3′-one]: 36.8 nM; `C#Cc1cccc(C(=O)N2CCC3(CC2)O[C@@H]2CC[C@@H](c4ccccc4)N2C3=O)c1` [Example 6.141, (5′S,7a′R)-1-(3-ethynylbenzene-1-carbonyl)-5′-phenyl-tetrahydro-3′H-spiro [piperidine-4,2′-pyrrolo[2,1-b][1,3]oxazol]-3′-one]: under 25 nM.
Consider `O=C1N2[C@@H](CC[C@H]2c2cc(F)cc(F)c2)OC12CCN(c1cc(-c3ccccc3)ncn1)CC2` [Example 4.13, (5′S,7a′R)-5′-(3,5-difluorophenyl)-1-(6-phenylpyrimidin-4-yl)tetrahydro-3′H-spiro[piperidine-4,2′-pyrrolo[2,1-b] [1,3]oxazol]-3′-one], for which the concentration giving a half-maximal response (EC50) was under 25 nM.
The figure for `N#Cc1ccc(N2CC3(C2)O[C@@H]2CC[C@@H](c4ccccc4)N2C3=O)n2ncnc12` [Example 13.23, 5-((5′S,′7a′R)-3′-oxo-5′-phenyltetrahydro-3′H-spiro[azetidine-3,2′-pyrrolo[2,1-b]oxazol]-1-yl)-[1,2,4]triazolo[1,5-a]pyridine-8-carbonitrile, TFA salt] is 54.3 nM; for `N#Cc1ccc(N2CCC3(CC2)O[C@@H]2CC[C@@H](c4ccccc4)N2C3=O)n2ncc(F)c12` [Example 4.177, 3-fluoro-7-[(5′S,7a′R)-3′-oxo-5′-phenyltetrahydro-1H,3′H-spiro[piperidine-4,2′-pyrrolo[2,1-b] [1,3]oxazol]-1-yl]pyrazolo[1,5-a] pyridine-4-carbonitrile] it is under 25 nM.
As for `N#Cc1ccc(N2CCC3(CC2)O[C@@H]2CC[C@@H](c4ccccc4)N2C3=O)n2ncc(C(F)F)c12` [Example 4.179, 3-(difluoromethyl)-7-[(5′S,7a′R)-3′-oxo-5′-phenyltetrahydro-1H,3′H-spiro[piperidine-4,2′-pyrrolo[2,1-b] [1,3]oxazol]-1-yl]pyrazolo[1,5-a] pyridine-4-carbonitrile], the EC50 was under 25 nM.
As to `Cc1nccnc1C(=O)N1CCC2(CC1)O[C@@H]1CC[C@@H](c3cc(F)cc(F)c3)N1C2=O` [Example 6.2, (5′S,7a′R)-5′-(3,5-difluorophenyl)-1-(3-methylpyrazine-2-carbonyl)tetrahydro-3′H-spiro[piperidine-4,2′-pyrrolo[2,1-b] [1,3]oxazol]-3′-one], the EC50 is 493 nM.
On to `COC(=O)c1c(C)cc(N2CCC3(CC2)O[C@@H]2CC[C@@H](c4ccccc4)N2C3=O)nc1C#N` [Example 4.192, methyl 2-cyano-4-methyl-6-[(5′S,7a′R)-3′-oxo-5′-phenyltetrahydro-1H,3′H-spiro[piperidine-4,2′-pyrrolo[2,1-b] [1,3]oxazol]-1-yl] pyridine-3-carboxylate], for which the EC50 came to 54.4 nM.
For `O=C(c1ccn2nncc2c1)N1CCC2(CC1)O[C@@H]1CC[C@@H](c3cc(F)cc(F)c3)N1C2=O` [Example 6.22, (5′S,7a′R)-5′-(3,5-difluorophenyl)-1-([1,2,3]triazolo[1,5-a]pyridine-5-carbon-yl)tetrahydro-3′H-spiro[piperidine-4,2′-pyrrolo[2,1-b][1,3]oxazol]-3′-one], the EC50 turned out to be 30.5 nM.
In the case of `O=C1N2[C@@H](CC[C@H]2c2cc(F)cc(F)c2)OC12CCN(c1ncc(F)c(C(F)F)n1)CC2` [Example 4.66, (5′S,7a′R)-1-[4-(difluoromethyl)-5-fluoropyrimidin-2-yl]-5′-(3,5-difluorophenyl)tetrahydro-3′H-spiro[piperidine-4,2′-pyrrolo[2,1-b] [1,3]oxazol]-3′-one], the EC50 stood at 38.4 nM.
For `O=C1N2[C@@H](CC[C@H]2c2cc(F)cc(F)c2)OC12CCN(c1ccc(Cl)c3ccnn13)CC2` [Example 15.1, (5′S,7a′R)-1-(4-chloropyrazolo[1,5-a]pyridin-7-yl)-5′-(3,5-difluorophenyl)tetrahydro-3′H-spiro[piperidine-4,2′-pyrrolo[2,1-b]oxazol]-3′-one, TFA], the EC50 is under 25 nM.
On to `O=C(c1ccccc1)N1CCC2(CC1)SC1CC[C@H](c3cc(F)cc(F)c3)N1C2=O` (stereo partly drawn) [Example 1.21, (5′R)-1-benzoyl-5′-(3,5-difluorophenyl)tetrahydro-3′H-spiro[piperidine-4,2′-pyrrolo[2,1-b]thiazol]-3′-one], for which the EC50 turned out to be 501 nM.
The figure for `Cn1cnc(-c2ccc(N3CCC4(CC3)O[C@@H]3CC[C@@H](c5ccccc5)N3C4=O)n3ncnc23)c1` [Example 21.21, (5′S,7a′R)-1-[8-(1-methyl-1H-imidazol-4-yl)[1,2,4]triazolo[1,5-a]pyridin-5-yl]-5′-phenyltetrahydro-3′H-spiro[piperidine-4,2′-pyrrolo[2,1-b][l,3]oxazol]-3′-one] is under 25 nM; for `NC(=O)c1ccc(N2CCC3(CC2)O[C@@H]2CC[C@@H](c4ccccc4)N2C3=O)n2nccc12` [Example 4.155, 7-[(5′S,7a′R)-3′-oxo-5′-phenyltetrahydro-1H,3′H-spiro[piperidine-4,2′-pyrrolo[2,1-b] [1,3]oxazol]-1-yl]pyrazolo[1,5-a] pyridine-4-carboxamide] it is under 25 nM; for `O=C(c1cncnc1)N1CCC2(CC1)O[C@@H]1CC[C@@H](c3cc(F)cc(F)c3)N1C2=O` [Example 6.40, (5′S,7a′R)-5′-(3,5-difluorophenyl)-1-(pyrimidine-5-car-bonyl)tetrahydro-3′H-spiro[piperidine-4,2′-pyrrolo[2,1-b][1,3]oxazol]-3′-one] it is 436 nM.
`COc1ccnc(N2CCC3(CC2)O[C@@H]2CC[C@@H](c4ccccc4)N2C3=O)c1` [Example 11.30, (5′S,7a′R)-1-(4-methoxypyridin-2-yl)-5′-phenyltetrahydro-3′H-spiro[piperidine-4,2′-pyrrolo[2,1-b][1,3]oxazol]-3′-one]: the EC50 worked out at 191 nM.
For `O=C1N2[C@@H](CC[C@H]2c2ccccc2)OC12CCN(c1ncnn3ccnc13)CC2` [Example 4.227, (5′S,7a′R)-1-(imidazo[2,1-f] [1,2,4]triazin-4-yl)-5′-phenyltetrahydro-3′H-spiro[piperidine-4,2′-pyrrolo[2,1-b] [1,3]oxazol]-3′-one], the EC50 was found to be 27.3 nM.
As to `C#Cc1ccccc1C(=O)N1CCC2(CC1)O[C@@H]1CC[C@@H](c3cc(F)cc(F)c3)N1C2=O` [Example 5.23, (5′S,7a′R)-5′-(3,5-difluoro-phenyl)-1-(2-ethynyl-benzoyl)tetrahydro-3′H-spiro[piperidine-4,2′-pyrrolo[2,1-b]oxazol]-3′-one], the EC50 worked out at 143 nM.
With `NC(=O)c1ccc(N2CCC3(CC2)O[C@@H]2CC[C@@H](c4ccccc4)N2C3=O)n2ncnc12` [Example 4.212, 5-[(5′S,7a′R)-3′-oxo-5′-phenyltetrahydro-1H,3′H-spiro[piperidine-4,2′-pyrrolo[2,1-b] [1,3]oxazol]-1-yl] [1,2,4]triazolo[1,5-a] pyridine-8-carboxamide], the EC50 was under 25 nM.
Regarding `O=C(c1ccccc1)N1CCC2(CC1)O[C@@H]1CC[C@@H](c3cccc(F)c3F)N1C2=O` [Example 17.10, (5′S,7a′R)-1-benzoyl-5′-(2,3-difluorophenyl)tetrahydro-3′H-spiro[piperidine-4,2′-pyrrolo[2,1-b]oxazol]-3′-one], the EC50 is under 25 nM.
Turning to `N#Cc1ccc(N2CCC3(CC2)O[C@@H]2CC[C@@H](c4ccccc4)N2C3=O)c2ccnn12` [Example 13.19, 4-((5′S,7a′R)-3′-oxo-5′ phenyltetrahydro-3′H-spiro[piperidine-4,2′-pyrrolo[2,1-b]oxazol]-1-yl)pyrazolo[1,5-a]pyridine-7-carbonitrile, TFA salt], the EC50 is under 25 nM.
Next, `N#Cc1cnc(N2CCC3(CC2)O[C@@H]2CC[C@@H](c4cc(F)cc(F)c4)N2C3=O)nc1` [Example 4.76, 2-[(5′S,7a′R)-5′-(3,5-difluorophenyl)-3′-oxotetrahydro-1H,3′H-spiro[piperidine-4,2′-pyrrolo[2,1-b] [1,3]oxazol]-1-yl]pyrimidine-5-carbonitrile]: 38.2 nM.
